Measured values taken from paper PMC10977697 (PLOS ONE, 2024).
Where no end group is shown, it is not given here.

These sequences were tested on PCSK9 (assay: not given). Settings: spot phage ELISA signal-to-noise on PCSK9.
Format: binding, human
“GCGSHFAPWFGCKQDSDCLSWLCLYAADGLW (disulfide (positions not given here)) [PCSK9 EET I-II 5]” gave a S/N of 18.1.
Work on “GCGWWYRQWFCKQDSDCLAGCVCLETPECG (disulfide (positions not given here)) [PCSK9 EET I-II 16]” yielded a S/N of 15.7.
“GCGYWFIQWFCKQDSDCLAGCVCGPNGFCG (disulfide (positions not given here)) [PCSK9 EET I-II 1]” was tested, and the S/N was 21.8.
Sequence “GCGYWFKMWFCKQDSDCLAGCVCYPGASCG (disulfide (positions not given here)) [PCSK9 EET I-II 8]” has a S/N of 9.7.
With “GCGYWFKMWFCKQDSDCLAGCVCYPGASCG (disulfide (positions not given here)) [PCSK9 EET I-II 12]” the S/N was 15.5.

The sequences below were run on EpCAM (assay: Spot phage ELISA, EpCAM). Settings: spot phage ELISA signal-to-noise on EpCAM.
Format: binding, human
“GPTQSIYGVCGGIGYVGGRYCSGTTCQIPEKYKSQCLPGAS (disulfide (positions not given here)) [EpCAM CBD 45]” showed a S/N of 11.1.
Work on “GPTQSLPGFCGGIGYVGGRYCSGTTCQLPEKLKSQCLPGAS (disulfide (positions not given here)) [EpCAM CBD 1]” yielded a S/N of 26.7.
“GPTQSVIGPCGGIGYVGGRYCSGTTCQMPTSYRSQCLPGAS (disulfide (positions not given here)) [EpCAM CBD 35]” showed a S/N of 14.4.

What follows are sequences tested on CD16A (assay: Spot phage ELISA, CD16A). Settings: spot phage ELISA signal-to-noise on CD16A.
Format: binding, human
For “GCADTPWKGKCKQDSDCLAGCVCGPNGFCG (disulfide (positions not given here)) [CD16A EETI-II 20]”, the S/N was 15.6.
With “GCADTPWQGRCKQDSDCLAGCVCGPNGFCG (disulfide (positions not given here)) [CD16A EETI-II 21]” the S/N was 25.5.
In the case of “GCAKDPWGQPMSCKQDSDCLAGCVCGPNGFC (disulfide (positions not given here)) [CD16A EETI-II 27]”, the S/N is reported as 20.7.
In the case of “GCAVDPWGKQMTCKQDSDCLAGCVCGPNGFC (disulfide (positions not given here)) [CD16A EETI-II 33]”, the S/N is reported as 19.5.
In the case of “GCDAILWTCKQDSDCLAGCVCSEEDLCG (disulfide (positions not given here)) [CD16A EETI-II 7]”, the S/N is reported as 18.7.
Work on “GCDAKLQQCKQDSDCLAGCVCEEAVICG (disulfide (positions not given here)) [CD16A EETI-II 2]” yielded a S/N of 22.9.
In the case of “GCDDILRACKQDSDCLAGCVCEEETLCG (disulfide (positions not given here)) [CD16A EETI-II 6]”, the S/N is reported as 19.9.
For “GCDDILRACKQDSDCLAGCVCEEETLCG (disulfide (positions not given here)) [CD16A EETI-II 9]”, the S/N was 17.8.
For “GCDDPWGGEMCKQDSDCLAGCVCGPNGFCG (disulfide (positions not given here)) [CD16A EETI-II 16]”, the S/N was 23.6.
“GCDDPWGMAMPCKQDSDCLAGCVCGPNGFCG (disulfide (positions not given here)) [CD16A EETI-II 17]” was tested, and the S/N was 23.4.
“GCDEILHKCKQDSDCLAGCVCDEQQLCG (disulfide (positions not given here)) [CD16A EETI-II 10]” was tested, and the S/N was 17.2.
For “GCDEMLYRCKQDSDCLAGCVCQEQDVCG (disulfide (positions not given here)) [CD16A EETI-II 5]”, the S/N was 20.0.
For “GCDMPSWDNVWPCKQDSDCLAGCVCGPNGFC (disulfide (positions not given here)) [CD16A EETI-II 28]”, the S/N was 19.8.
Work on “GCDSLLQRCKQDSDCLAGCVCTEEHLCG (disulfide (positions not given here)) [CD16A EETI-II 11]” yielded a S/N of 16.8.
“GCDWLEVECKQDSDCLAGCVCLISPYCG (disulfide (positions not given here)) [CD16A EETI-II 39]” was tested, and the S/N was 16.3.
Work on “GCDYKLWRCKQDSDCLAGCVCEESQVCG (disulfide (positions not given here)) [CD16A EETI-II 3]” yielded a S/N of 21.6.
In the case of “GCDYKLWRCKQDSDCLAGCVCEESQVCG (disulfide (positions not given here)) [CD16A EETI-II 8]”, the S/N is reported as 18.2.
For “GCEWMAIPCKQDSDCLAGCVCWESPYCG (disulfide (positions not given here)) [CD16A EETI-II 40]”, the S/N was 20.1.
Work on “GCGQAAVPCKQDSDCLAGCVCDPWGWCD (disulfide (positions not given here)) [CD16A EETI-II 29]” yielded a S/N of 23.7.
Work on “GCGSKNGMNMCKQDSDCLAGCVCDPWGQCD (disulfide (positions not given here)) [CD16A EETI-II 31]” yielded a S/N of 15.5.
Sequence “GCIATVDHCKQDSDCLAGCVCEPFHVCG (disulfide (positions not given here)) [CD16A EETI-II 4]” has a S/N of 20.2.
“GCIETIDHCKQDSDCLAGCVCQPMRRCG (disulfide (positions not given here)) [CD16A EETI-II 13]” was tested, and the S/N was 20.1.
For “GCMDTPWKGACKQDSDCLAGCVCGPNGFCG (disulfide (positions not given here)) [CD16A EETI-II 19]”, the S/N was 18.2.
“GCPRILMRCKQDPDCLAGCVCDEEQLCG (disulfide (positions not given here)) [CD16A EETI-II 1]” gave a S/N of 25.4.
“GCPRILMRCKQDSDCLAGYVCDPWGVCD (disulfide (positions not given here)) [CD16A EETI-II 30]” gave a S/N of 23.2.
In the case of “GCPWWWVVSCKQDSDCLAGCVCYLQENCG (disulfide (positions not given here)) [CD16A EETI-II 14]”, the S/N is reported as 17.8.
For “GCPWWWVVSCKQDSDCLAGCVCYLQENCG (disulfide (positions not given here)) [CD16A EETI-II 43]”, the S/N was 16.5.
Sequence “GCQDPWGEAMQCKQDSDCLAGCVCGPNGFCG (disulfide (positions not given here)) [CD16A EETI-II 15]” has a S/N of 25.7.
For “GCQFMKTECKQDSDCLAGCVCYESPWCG (disulfide (positions not given here)) [CD16A EETI-II 22]”, the S/N was 19.0.
Sequence “GCQVDPWGHQMDCKQDSDCLAGCVCGPNGFC (disulfide (positions not given here)) [CD16A EETI-II 32]” has a S/N of 22.9.
For “GCQWAQLSWDHCKQDSDCLAGCVCWQSPYCG (disulfide (positions not given here)) [CD16A EETI-II 35]”, the S/N was 16.7.
With “GCQWDPWGVQMNCKQDSDCLAGCVCGPNGFC (disulfide (positions not given here)) [CD16A EETI-II 34]” the S/N was 19.6.
In the case of “GCQWHEMTCKQDSDCLAGCVCWESPWCG (disulfide (positions not given here)) [CD16A EETI-II 36]”, the S/N is reported as 15.9.
“GCQWIQQPCKQDSDCLAGCVCHESPWCG (disulfide (positions not given here)) [CD16A EETI-II 38]” was tested, and the S/N was 17.4.
Sequence “GCQWIQVNCKQDSDCLAGCVCWVSPYCG (disulfide (positions not given here)) [CD16A EETI-II 37]” has a S/N of 5.8.
In the case of “GCQWQVEECKQDSDCLAGCVCWHSPYCG (disulfide (positions not given here)) [CD16A EETI-II 41]”, the S/N is reported as 18.8.
Sequence “GCQWVQMTCKQDSDCLAGCVCWHSPWCG (disulfide (positions not given here)) [CD16A EETI-II 42]” has a S/N of 17.3.
With “GCQYIETECKQDSDCLAGCVCWVSPWCG (disulfide (positions not given here)) [CD16A EETI-II 44]” the S/N was 20.5.
“GCRGIDWWPCKQDSDCLTGCVCGPNGFCG (disulfide (positions not given here)) [CD16A EETI-II 24]” showed a S/N of 11.1.
“GCSGNAMNCKQDSDCLAGCVCDPWGKCD (disulfide (positions not given here)) [CD16A EETI-II 25]” was tested, and the S/N was 19.7.
With “GCVETYVDCKQDSDCLAGCVCEPVQYCG (disulfide (positions not given here)) [CD16A EETI-II 12]” the S/N was 18.5.
“GCWDPWGPMSCKQDSDCLAGCVCGPNGFCG (disulfide (positions not given here)) [CD16A EETI-II 18]” showed a S/N of 12.9.
“GCWGFPFPMDCKQDSDCLAGCVCFLWDKCG (disulfide (positions not given here)) [CD16A EETI-II 23]” showed a S/N of 19.5.
In the case of “GCWGPWGPEHCKQDSDCLAGCVCGPNGFCG (disulfide (positions not given here)) [CD16A EETI-II 26]”, the S/N is reported as 18.3.
Sequence “GPTQSEGGQCGGIGYSGPTVCASGTTCQVLGPMWSFCLPGAS (disulfide (positions not given here)) [CD16A CBD 10]” has a S/N of 5.9.
Sequence “GPTQSEGGQCGGIGYSGPTVCASGTTCQVLGPSWSFCLPGAS (disulfide (positions not given here)) [CD16A CBD 11]” has a S/N of 4.9.
For “GPTQSEGGSCGGIGYSGPTVCASGTTCQVLGPYISLCLPGAS (disulfide (positions not given here)) [CD16A CBD 2]”, the S/N was 18.5.
“GPTQSEGGSCGGIGYSGPTVCASGTTCQVLNPYMSACLPGAS (disulfide (positions not given here)) [CD16A CBD 7]” was tested, and the S/N was 14.8.
“GPTQSHGGSCGGIGYSGPTVCASGTTCQVLNPYLSLCLPGAS (disulfide (positions not given here)) [CD16A CBD 3]” showed a S/N of 17.5.
“GPTQSHYGQCGGLGYFGQWFCSGTTCQMMSPYGSQCLPGAST (disulfide (positions not given here)) [CD16A CBD 9]” showed a S/N of 8.3.
For “GPTQSMGGSCGGIGYSGPTVCASGTTCQVLDPYISMCLPGAS (disulfide (positions not given here)) [CD16A CBD 5]”, the S/N was 16.5.
Sequence “GPTQSPEGSCGGIGYSGPTVCASGTTCQVLNPYLSLCLPGAS (disulfide (positions not given here)) [CD16A CBD 8]” has a S/N of 14.2.
“GPTQSPXGSCGGIGYSGPTVCASGTTCQVLNPYLSQCLPGAS (disulfide) [CD16A CBD 4]” was tested, and the S/N was 16.8.
For “GPTQSVWGSCGGIGYSGPTVCASGTTCQVLNPYMSACLPGAS (disulfide (positions not given here)) [CD16A CBD 1]”, the S/N was 21.0.
“GPTQSWDGQCGGIGYSGPTVCASGTTCQVLSPYLSYCLPGAS (disulfide (positions not given here)) [CD16A CBD 6]” showed a S/N of 15.7.
